Assay results as given in patent US6914045B2, “Glycopeptide antibiotics” (Wyeth Holdings Corporation, priority 2001, dated 2005).
≈ marks a conversion by molar mass, not a printed value.

Legend:
Assay in all cases: in vitro antibacterial evaluation, MIC by broth dilution
Assay type in all cases: cell-based
Details in all cases: broth dilution, 18 hours at 35° C.
Enterococcus sp. = tested on: Enterococcus sp.
How it was run: (§1)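 Following National Committee for Clinical Laboratory Standards recommendations (M7-A2), susceptibility was measured by dilution in Muller-Hinton II […]. Bacteria were seeded at 5×10^5 CFU/mL against compound concentrations from 64 down to 0.06 μg/mL.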

Staphylococcus sp. = tested on: Staphylococcus sp.
How it was run: as §1

Streptococcus sp. = tested on: Streptococcus sp.
How it was run: as §1

Escherichia coli = tested on: Escherichia coli
How it was run: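 Broth dilution in Muller-Hinton II medium per NCCLS standard M7-A2, with an inoculum of 5×10^5 CFU/mL and antibiotic tested over 64-0.06 μg/mL. MIC was taken as the lowest concentration inhibiting visible growth.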

CC(c1ccccc1)C1NC(=O)CNC(=O)C(CO)NC(=O)C(C(O)C2CNC(=N)N2C2OC(CO)C(O)C(O)C2O)NC(=O)C(C(O)C2CNC(=N)N2)NC(=O)C(Cc2ccc3oc(-c4ccc(C(=O)O)cc4)nc3c2)NC1=O (stereo not drawn) [Example 25, Cyclo[3-[2-(4-carboxyphenyl)-1,3-benzoxazol-5-yl]alanyl-3-(2-iminoimidazolidin-4-yl)seryl-3-(3-hexopyranosyl-2-iminoimidazolidin-4-yl)serylserylglycyl-β-methylphenylalanyl]]
MIC Enterococcus faecalis (ATCC 29212) (Enterococcus sp.; strain ATCC 29212): >128 µg/mL | MIC Enterococcus faecalis (GC 2242) (Enterococcus sp.; strain GC 2242): >128 µg/mL | MIC Enterococcus faecium (GC 2243) (Enterococcus sp.; strain GC 2243): >128 µg/mL | MIC Enterococcus faecalis (GC 2691) (Enterococcus sp.; strain GC 2691): >128 µg/mL | MIC Enterococcus faecalis (GC 3059) (Enterococcus sp.; strain GC 3059): >128 µg/mL | MIC Enterococcus faecalis (GC 4552) (Enterococcus sp.; strain GC 4552): >128 µg/mL | MIC Enterococcus faecalis (GC 4553) (Enterococcus sp.; strain GC 4553): >128 µg/mL | MIC Enterococcus faecalis (GC 4554) (Enterococcus sp.; strain GC 4554): >128 µg/mL | MIC Enterococcus faecium (GC 4556) (Enterococcus sp.; strain GC 4556): >128 µg/mL | MIC Enterococcus faecium (GC 4557) (Enterococcus sp.; strain GC 4557): 128 µg/mL (≈ 115 µM) | MIC Enterococcus avium (GC 4558) (Enterococcus sp.; strain GC 4558): 128 µg/mL (≈ 115 µM) | MIC Enterococcus faecalis (GC 6189) (Enterococcus sp.; strain GC 6189): >128 µg/mL | MIC Staphylococcus aureus (ATCC 29213) (Staphylococcus sp.; strain ATCC 29213): >128 µg/mL | MIC Staphylococcus aureus (GC 1131) (Staphylococcus sp.; strain GC 1131): >128 µg/mL | MIC Staphylococcus aureus (GC 3051) (Staphylococcus sp.; strain GC 3051): >128 µg/mL | MIC Staphylococcus aureus (GC 3053) (Staphylococcus sp.; strain GC 3053): >128 µg/mL | MIC Staphylococcus aureus (GC 4541) (Staphylococcus sp.; strain GC 4541): >128 µg/mL | MIC Staphylococcus aureus (GC 4542) (Staphylococcus sp.; strain GC 4542): >128 µg/mL | MIC Staphylococcus aureus-SMITH (GC 4543) (Staphylococcus sp.; strain GC 4543): >128 µg/mL | MIC Staphylococcus aureus (GC 4544) (Staphylococcus sp.; strain GC 4544): >128 µg/mL | MIC Staphylococcus aureus (GC 4545) (Staphylococcus sp.; strain GC 4545): >128 µg/mL | MIC Staphylococcus haemolyticus (GC 4546) (Staphylococcus sp.; strain GC 4546): >128 µg/mL | MIC Coagulase Negative Staphylococcus (GC 4547) (Staphylococcus sp.; strain GC 4547): >128 µg/mL | MIC Coagulase Negative Staphylococcus (GC 4548) (Staphylococcus sp.; strain GC 4548): >128 µg/mL | MIC Coagulase Negative Staphylococcus (GC 4549) (Staphylococcus sp.; strain GC 4549): >128 µg/mL | MIC Coagulase Negative Staphylococcus (GC 4551) (Staphylococcus sp.; strain GC 4551): >128 µg/mL | MIC Coagulase Negative Staphylococcus (GC 6257) (Staphylococcus sp.; strain GC 6257): >128 µg/mL | MIC Streptococcus pneumoniae (ATCC 6301) (Streptococcus sp.; strain ATCC 6301): >128 µg/mL | MIC Streptococcus pneumoniae (GC 1894) (Streptococcus sp.; strain GC 1894): 128 µg/mL (≈ 115 µM) | MIC Streptococcus pyogenes (GC 4563) (Streptococcus sp.; strain GC 4563): >128 µg/mL | MIC Streptococcus agalactiae (GC 4564) (Streptococcus sp.; strain GC 4564): >128 µg/mL | MIC Streptococcus pneumoniae (GC 4565) (Streptococcus sp.; strain GC 4565): >128 µg/mL | MIC Escherichia coli (ATCC 25922) (Escherichia coli; strain ATCC 25922): >128 µg/mL | MIC Escherichia coli (GC 4559) (Escherichia coli; strain GC 4559): >128 µg/mL | MIC Escherichia coli (GC 4560) (Escherichia coli; strain GC 4560): >128 µg/mL
